Laboratory results from patent US6706663B2, “Herbicidal 3-heterocyclic substituted benzisothiazole and benzisoxazole compounds” (Wyeth, priority 2000, dated 2004).

Key:
[1] = system: TRZAWR (Wheat, Winter, cv Riband); experiment: Postemergence herbicidal evaluation; assay type: in vivo, Triticum aestivum; conditions: for TRZAWR herbicidal rating: postemergence
How it was run: (§1)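 Seedlings grown about two weeks in flats, sprayed, then kept under standard greenhouse care. Rated visually 4–5 weeks after treatment on a 0–9 scale (stand, vigour, malformation, size, chlorosis, overall appearance) relative to untreated control; repeat tests averaged.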

[2] = system: SAGPY (Sagittaria pygmaea); experiment: Flooded paddy, preemergence weed control; assay type: in vivo, L.; conditions: rated 3-4 weeks after treatment, 0-9 rating scale
How it was run: (§2)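 Seeds or propagating organs were sown in the top 0.5 cm of silt loam soil, flooded, and the water kept 1.5 to 3 cm above the soil surface throughout. Plants were grown in the greenhouse and rated visually on a 0-9 scale against a control.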

[3] = system: ECHORC (Echinochloa oryzoides); experiment: Flooded paddy, preemergence weed control; assay type: in vivo, Echinochloa oryzoides (Ard.) Fritsch.; conditions: rated 3-4 weeks after treatment, 0-9 rating scale
How it was run: as §2

ORYSAT (Rice, Tebonnet) = experiment: Preemergence herbicidal evaluation; assay type: in vivo, Oryza sativa, (L.) Tebonnet; conditions: rated 4-5 weeks after treatment
[4] = system: ECHCG (Echinochloa crus-galli); experiment: Postemergence herbicidal evaluation; assay type: in vivo, (L.) Beau; conditions: for ECHCG herbicidal rating: postemergence
How it was run: as §1

ZEAMX (Corn, Field) = experiment: Postemergence herbicidal evaluation; assay type: in vivo, Zea mays, L.; conditions: for ZEAMX herbicidal rating: postemergence
How it was run: as §1

[5] = system: CYPSE (Cyperus serotinus); experiment: Flooded paddy, preemergence weed control; assay type: in vivo, Rottb.; conditions: rated 3-4 weeks after treatment, 0-9 rating scale
How it was run: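 Seeds or propagules were planted 0.5 cm deep in silt loam and flooded to 1.5–3 cm. Compounds in 50/50 v/v aqueous/acetone were pipetted into the flood water at about 0.0080 to 0.1250 kg/ha. After 3–4 weeks in the greenhouse, effect was rated visually on a 0–9 scale versus untreated control.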

SETVI (Setaria viridis) = experiment: Postemergence herbicidal evaluation; assay type: in vivo, (L.) Beau; conditions: for SETVI herbicidal rating: postemergence
How it was run: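 Visual injury score (0-9: stand, vigor, malformation, size, chlorosis, overall appearance vs untreated control) taken four to five weeks post-spray. Two-week-old seedlings received about 0.0040 to 1.000 kg/ha active compound in acetone/water with 0.5% TWEEN 20.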

GALAP (Galium aparine) [6] = experiment: Postemergence herbicidal evaluation; assay type: in vivo; conditions: for GALAP herbicidal rating: postemergence
How it was run: as §1

GALAP (Galium aparine) [7] = experiment: Preemergence herbicidal evaluation; assay type: in vivo; conditions: rated 4-5 weeks after treatment
How it was run: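 Scores (0–9) reflect visual comparison with control plants for stand, vigor, malformation, size and chlorosis. Seeds in potting soil received a post-planting spray of compound in aqueous acetone and grew in a greenhouse until assessment 4–5 weeks later.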

[8] = Rate 0.0620 kg/ha, preemergence
[9] = Rate 0.1250 kg/ha, preemergence
[10] = Rate 0.2500 kg/ha, preemergence
[11] = preemergence, rate 0.1250 kg/ha

CC1CC(C)(C)OC(c2nsc3ccc(-n4c(=O)cc(C(F)(F)F)n(C)c4=O)cc23)O1 (stereo not shown) [Compound 55, 1-methyl-6-(trifluoromethyl)-3-[3-(4,4,6-trimethyl-m-dioxan-2-yl)-1,2-benzisothiazol-5-yl]uracil]
TRZAWR herbicidal rating ([1]; rate 0.0320 kg/ha): 3.0
TRZAWR herbicidal rating ([1]; rate 0.0620 kg/ha): 5.0
herbicidal rating, SAGPY ([2]; rate 0.0080 kg/ha): 0.0
herbicidal rating, SAGPY ([2]; rate 0.0320 kg/ha): 0.0
herbicidal rating, SAGPY ([2]; rate 0.1250 kg/ha): 7.0
herbicidal rating, ECHORC ([3]; rate 0.0080 kg/ha): 5.0
herbicidal rating, ECHORC ([3]; rate 0.0320 kg/ha): 7.5
herbicidal rating, ECHORC ([3]; rate 0.1250 kg/ha): 9.0
Preemergence herbicidal rating ORYSAT (ORYSAT (Rice, Tebonnet); Rate 0.0620 kg/ha): 7.5
Preemergence herbicidal rating ORYSAT (ORYSAT (Rice, Tebonnet); Rate 0.1250 kg/ha): 9.0
Preemergence herbicidal rating ORYSAT (ORYSAT (Rice, Tebonnet); Rate 0.2500 kg/ha): 9.0
ECHCG herbicidal rating ([4]; rate 0.0320 kg/ha): 1.0
ECHCG herbicidal rating ([4]; rate 0.0620 kg/ha): 1.0
ZEAMX herbicidal rating (ZEAMX (Corn, Field); rate 0.0320 kg/ha): 4.5
ZEAMX herbicidal rating (ZEAMX (Corn, Field); rate 0.0620 kg/ha): 5.0
herbicidal rating, CYPSE ([5]; rate 0.0320 kg/ha): 9.0
herbicidal rating, CYPSE ([5]; rate 0.1250 kg/ha): 9.0
SETVI herbicidal rating (SETVI (Setaria viridis); rate 0.0320 kg/ha): 1.0
SETVI herbicidal rating (SETVI (Setaria viridis); rate 0.0620 kg/ha): 1.0
GALAP herbicidal rating (GALAP (Galium aparine) [6]; rate 0.0320 kg/ha): 2.0
GALAP herbicidal rating (GALAP (Galium aparine) [6]; rate 0.0620 kg/ha): 2.0

Cn1c(C(F)(F)F)cc(=O)n(-c2ccc3snc(-c4ccccn4)c3c2)c1=O [Compound 9, 1-methyl-3-[3-(2-pyridyl)-1,2-benzisothiazol-5-yl]-6-(trifluoromethyl)uracil]
Postemergence herbicidal rating, TRZAWR ([1]; rate 0.0320 kg/ha): 4.0
Postemergence herbicidal rating, TRZAWR ([1]; rate 0.0620 kg/ha): 4.5
Postemergence herbicidal rating, TRZAWR ([1]; rate 0.1250 kg/ha): 6.0
herbicidal rating, SAGPY ([2]; rate 0.0080 kg/ha): 0.0
herbicidal rating, SAGPY ([2]; rate 0.0320 kg/ha): 3.0
herbicidal rating, SAGPY ([2]; rate 0.1250 kg/ha): 9.0
herbicidal rating, ECHORC ([3]; rate 0.0080 kg/ha): 4.0
herbicidal rating, ECHORC ([3]; rate 0.0320 kg/ha): 7.0
herbicidal rating, ECHORC ([3]; rate 0.1250 kg/ha): 9.0
GALAP preemergence herbicidal rating (GALAP (Galium aparine) [7]; [8]): 1.5
GALAP preemergence herbicidal rating (GALAP (Galium aparine) [7]; [9]): 3.0
GALAP preemergence herbicidal rating (GALAP (Galium aparine) [7]; [10]): 7.0
ORYSAT preemergence herbicidal rating (ORYSAT (Rice, Tebonnet); [8]): 4.3
ORYSAT preemergence herbicidal rating (ORYSAT (Rice, Tebonnet); [9]): 6.7
ORYSAT preemergence herbicidal rating (ORYSAT (Rice, Tebonnet); [10]): 8.0
Postemergence herbicidal rating, ECHCG ([4]; rate 0.0320 kg/ha): 1.0
Postemergence herbicidal rating, ECHCG ([4]; rate 0.0620 kg/ha): 2.0
Postemergence herbicidal rating, ECHCG ([4]; rate 0.1250 kg/ha): 8.0
Postemergence herbicidal rating, ZEAMX (ZEAMX (Corn, Field); rate 0.0320 kg/ha): 5.3
Postemergence herbicidal rating, ZEAMX (ZEAMX (Corn, Field); rate 0.0620 kg/ha): 5.8
Postemergence herbicidal rating, ZEAMX (ZEAMX (Corn, Field); rate 0.1250 kg/ha): 5.5
Postemergence herbicidal rating, SETVI (SETVI (Setaria viridis); rate 0.0320 kg/ha): 8.0
Postemergence herbicidal rating, SETVI (SETVI (Setaria viridis); rate 0.0620 kg/ha): 9.0
Postemergence herbicidal rating, SETVI (SETVI (Setaria viridis); rate 0.1250 kg/ha): 9.0
Postemergence herbicidal rating, GALAP (GALAP (Galium aparine) [6]; rate 0.0320 kg/ha): 7.0
Postemergence herbicidal rating, GALAP (GALAP (Galium aparine) [6]; rate 0.0620 kg/ha): 7.0
Postemergence herbicidal rating, GALAP (GALAP (Galium aparine) [6]; rate 0.1250 kg/ha): 5.0

Cn1c(C(F)(F)F)cc(=O)n(-c2ccc3snc(-c4ccoc4)c3c2)c1=O [Compound 83, 3-[3-(3-furyl)-1,2-benzisothiazol-5-yl]-1-methyl-6-(trifluoromethyl)uracil]
TRZAWR herbicidal rating ([1]; rate 0.0320 kg/ha): 2.0
TRZAWR herbicidal rating ([1]; rate 0.0620 kg/ha): 3.0
herbicidal rating, SAGPY ([2]; rate 0.0080 kg/ha): 0.0
herbicidal rating, SAGPY ([2]; rate 0.0320 kg/ha): 0.0
herbicidal rating, SAGPY ([2]; rate 0.1250 kg/ha): 0.0
herbicidal rating, ECHORC ([3]; rate 0.0080 kg/ha): 0.0
herbicidal rating, ECHORC ([3]; rate 0.0320 kg/ha): 6.0
herbicidal rating, ECHORC ([3]; rate 0.1250 kg/ha): 7.0
Preemergence herbicidal rating GALAP (GALAP (Galium aparine) [7]; [11]): 4.0
Preemergence herbicidal rating ORYSAT (ORYSAT (Rice, Tebonnet); preemergence, rate 0.0620 kg/ha): 0.0
Preemergence herbicidal rating ORYSAT (ORYSAT (Rice, Tebonnet); [11]): 3.5
Preemergence herbicidal rating ORYSAT (ORYSAT (Rice, Tebonnet); preemergence, rate 0.2500 kg/ha): 5.5
ECHCG herbicidal rating ([4]; rate 0.0320 kg/ha): 2.0
ECHCG herbicidal rating ([4]; rate 0.0620 kg/ha): 3.0
ZEAMX herbicidal rating (ZEAMX (Corn, Field); rate 0.0320 kg/ha): 2.5
ZEAMX herbicidal rating (ZEAMX (Corn, Field); rate 0.0620 kg/ha): 3.0
SETVI herbicidal rating (SETVI (Setaria viridis); rate 0.0320 kg/ha): 3.0
SETVI herbicidal rating (SETVI (Setaria viridis); rate 0.0620 kg/ha): 4.0
GALAP herbicidal rating (GALAP (Galium aparine) [6]; rate 0.0320 kg/ha): 2.0
GALAP herbicidal rating (GALAP (Galium aparine) [6]; rate 0.0620 kg/ha): 3.0

C[C@@H]1C[C@H](C)OC(c2nsc3cc(F)c(-n4c(=O)cc(C(F)(F)F)n(C)c4=O)cc23)O1 (stereo partly drawn) [Compound 67, 3-[3-[(4R,6S)-4,6-dimethyl-m-dioxan-2-yl]-6-fluoro-1,2-benzisothiazol-5-yl]-1-methyl-6-(trifluoromethyl)uracil]
TRZAWR herbicidal rating ([1]; rate 0.0320 kg/ha): 4.0
TRZAWR herbicidal rating ([1]; rate 0.0620 kg/ha): 4.0
herbicidal rating, SAGPY ([2]; rate 0.0080 kg/ha): 1.5
herbicidal rating, SAGPY ([2]; rate 0.0320 kg/ha): 7.0
herbicidal rating, SAGPY ([2]; rate 0.1250 kg/ha): 7.0
herbicidal rating, ECHORC ([3]; rate 0.0080 kg/ha): 4.5
herbicidal rating, ECHORC ([3]; rate 0.0320 kg/ha): 9.0
herbicidal rating, ECHORC ([3]; rate 0.1250 kg/ha): 9.0
Preemergence herbicidal rating GALAP (GALAP (Galium aparine) [7]; Rate 0.0620 kg/ha): 8.0
Preemergence herbicidal rating GALAP (GALAP (Galium aparine) [7]; Rate 0.1250 kg/ha): 9.0
Preemergence herbicidal rating ORYSAT (ORYSAT (Rice, Tebonnet); Rate 0.0620 kg/ha): 9.0
Preemergence herbicidal rating ORYSAT (ORYSAT (Rice, Tebonnet); Rate 0.1250 kg/ha): 9.0
ECHCG herbicidal rating ([4]; rate 0.0320 kg/ha): 3.0
ECHCG herbicidal rating ([4]; rate 0.0620 kg/ha): 4.0
ZEAMX herbicidal rating (ZEAMX (Corn, Field); rate 0.0320 kg/ha): 5.5
ZEAMX herbicidal rating (ZEAMX (Corn, Field); rate 0.0620 kg/ha): 6.0
SETVI herbicidal rating (SETVI (Setaria viridis); rate 0.0320 kg/ha): 9.0
SETVI herbicidal rating (SETVI (Setaria viridis); rate 0.0620 kg/ha): 7.0
GALAP herbicidal rating (GALAP (Galium aparine) [6]; rate 0.0320 kg/ha): 6.0
GALAP herbicidal rating (GALAP (Galium aparine) [6]; rate 0.0620 kg/ha): 5.0
